This note sets out measurements from patent US5453417A, “Process for the phosphorylation of insulin and product produced thereby” (The Hospital for Sick Children, priority 1991, dated 1995).

Holding throughout (format): in vivo, dog
Assay [1] has as its system diabetic (pancreatectomized) dogs. The assay can be described thus: continuous insulin infusion at Max Rate and reduced rates, plasma glucose plateau under fasting conditions. The method, then:
The initial step in the protocol involved determining the required insulin infusion rate of either regular or phosphorylated insulin that would, under fasting conditions, reduce plasma glucose from normal at 7:30 a.m. to a plateau of 60 mg %, 2-4 hours later. […] The rate that produced this reduction of blood glucose to 60 mg % was termed "Max Rate".
On subsequent days, identical experiments were conducted on all 4 diabetic dogs with the exception that the animals received a reduced rate of insulin infusion equal to either 1) 62% of the "Max Rate" as shown in FIG. 6 or 2) 36% of the "Max Rate" as shown in FIG. 7.
In this test, the dogs infused with regular insulin reached a glucose threshold of 180 mg % (renal threshold at which the kidneys begin to spill glucose into the urine). The phosphorlated infused dogs reached a lower average glucose level of 120-130 mg %.
All protocols described were conducted in triplicate on all dogs.

Assay [2] deals with normal, fasted, beagle dogs. As to the kind of experiment: intravenous bolus, rate of decline of plasma glucose in 15 minutes following the injection. Particulars: i.v. bolus, phosphorylated insulin = product of Example 2. The method, then:
Phosphorylated insulin produced by the process described in Example 2 and regular insulin (Iletin II pure Pork) were injected as an intravenous bolus into 4 normal, fasted, beagle dogs. Each insulin was injected at a wide range of dosage with not more than one experiment on each dog on any given day. The plasma glucose of each dog was measured (YSI) at 2 minute intervals for 15 minutes following the injection and the rate of decline of glucose from normal was determined in this period for each individual insulin dose. When the data from FIG. 8 are analysed, it can be shown that the % change in insulin dose required to produce a given increase in glucose drop (glucose disposal) is greater for phosphorylated than for regular (unmodified) insulin. Thus, for example, in Table 4, a 28% increase in dose of regular insulin from that which produced a glucose drop of 3.5 mg %/min., caused the "rate of drop of glucose" to increase from 3.5 to 4.0 mg %/min. A 66 % increase in dose of phosphorylated insulin was required to produce the same effect.

The subject of the next assay is diabetic dogs. As to the kind of experiment: continuous 24 hour infusion, increase of infusion rate needed to lower 8 a.m. fasting plasma glucose. Particulars: two diabetic dogs, phosphorylated insulin = product prepared as Example 6 (FIG. 12). The method, then:
Two diabetic dogs were fed a single daily meal of 1100 kcal at 2:00 p.m. daily and given regular (i.e. fast acting) insulin at meal time.
In addition, dogs were infused continuously, 24 hours per day with either regular or phosphorylated insulin (product prepared as example 6).
During repeated experiments the minimum insulin infusion rate required to produce a mean 8 a.m. fasting plasma glucose of 95 mg % was determined for each insulin.

With “regular insulin: regular (unmodified) insulin, fast acting; Iletin II pure Pork in Example 32 [reference compound]”, the plasma glucose plateau in assay [1] (infusion at Max Rate, fasting, last 2 hours, phosphorylated insulin = product of Example 3, 4 diabetic dogs (FIG. 5)) was found to be 60 mg %. In addition, in assay [1] (infusion rate reduced to 36% of Max Rate, phosphorylated insulin = product of Example 3 (FIG. 7)), the “average glucose level reached” value was 180 mg %. Further, the “average plasma glucose plateau” value in assay [1] (infusion rate reduced to 62% of Max Rate, phosphorylated insulin = product of Example 3 (FIG. 6)) amounted to 150 mg %. Moreover, the “Required % Increase In Insulin Dose” value in assay [2] (change in rate of drop of glucose from 1.0 to 1.5 mg %/min) was 49%; in assay [2] (change in rate of drop of glucose from 1.5 to 2.0 mg %/min), 33%; in assay [2] (change in rate of drop of glucose from 2.0 to 2.5 mg %/min), 25%; in assay [2] (change in rate of drop of glucose from 2.5 to 3.0 mg %/min) it was 20%; in assay [2] (change in rate of drop of glucose from 3.0 to 3.5 mg %/min), 39%; in assay [2] (change in rate of drop of glucose from 3.5 to 4.0 mg %/min) it was 28%. For the same substance, the “Required % Increase In Insulin Dose” value in assay [2] (change in rate of drop of glucose from 4.0 to 4.5 mg %/min) stood at 34%. Further, in the assay with diabetic dogs, the “increase of insulin infusion rate required to drop the fasting glucose from 95 to 70 mg %” value is recorded as 20%.
